Experiment: xn = mol fraction of the nth substance listed
Details: 100 kPa

O=S(=O)([N-]S(=O)(=O)C(F)(F)F)C(F)(F)F.[Li+] + O
Details	electrical conductivity [S/m]
260.73 K, x2 = 0.7857	0.407
261.98 K, x2 = 0.8065	0.617
262.18 K, x2 = 0.8855	1.33
262.4 K, x2 = 0.9148	1.46
262.6 K, x2 = 0.8271	0.808
262.82 K, x2 = 0.8495	1.04
265.92 K, x2 = 0.7857	0.55
266.56 K, x2 = 0.8065	0.767
266.96 K, x2 = 0.8495	1.25
266.96 K, x2 = 0.9761	1.36
267.38 K, x2 = 0.8855	1.66
267.6 K, x2 = 0.9148	1.86
270.7 K, x2 = 0.7857	0.684
271.54 K, x2 = 0.8065	0.966
271.96 K, x2 = 0.9761	1.73
272.15 K, x2 = 0.8271	1.21
272.6 K, x2 = 0.9148	2.27
273.4 K, x2 = 0.7538	0.461
273.4 K, x2 = 0.8495	1.62
275.7 K, x2 = 0.7857	0.843
277.15 K, x1 = 0.0039	0.623
277.35 K, x2 = 0.8065	1.16
277.35 K, x2 = 0.8855	2.54
277.35 K, x2 = 0.9761	2.06
277.55 K, x2 = 0.8271	1.51
277.97 K, x2 = 0.7538	0.579
277.97 K, x2 = 0.9148	2.88
278.19 K, x2 = 0.8495	1.94
280.67 K, x2 = 0.7857	1.06
281.51 K, x2 = 0.8271	1.8
281.93 K, x2 = 0.8855	2.94
282.13 K, x2 = 0.9761	2.49
282.32 K, x1 = 0.0039	0.736
282.32 K, x2 = 0.8065	1.43
282.55 K, x2 = 0.9148	3.3
282.74 K, x2 = 0.8495	2.22
285.45 K, x2 = 0.7857	1.23
286.71 K, x2 = 0.9148	3.94
286.9 K, x2 = 0.8271	2.11
287.1 K, x2 = 0.8065	1.66
287.32 K, x2 = 0.8855	3.47
287.52 K, x2 = 0.9761	2.94
287.94 K, x2 = 0.8495	2.65
291.06 K, x2 = 0.7857	1.46
291.46 K, x2 = 0.8271	2.41
291.88 K, x2 = 0.8855	3.98
292.1 K, x2 = 0.9761	3.33
292.52 K, x2 = 0.7538	1.02
292.71 K, x2 = 0.9148	4.51
293.13 K, x2 = 0.8495	3.17
295.84 K, x2 = 0.7857	1.71
296.88 K, x2 = 0.6988	0.538
296.88 K, x2 = 0.9761	3.81
297.29 K, x2 = 0.8065	2.22
297.29 K, x2 = 0.8855	4.65
297.49 K, x2 = 0.7538	1.19
297.49 K, x2 = 0.8495	3.51
297.49 K, x2 = 0.9148	5.33
298.11 K, x1 = 0.0039	1.07
300.4 K, x2 = 0.7857	1.96
302.47 K, x1 = 0.0039	1.21
302.47 K, x2 = 0.6988	0.636
302.47 K, x2 = 0.8855	5.16
302.69 K, x2 = 0.9761	4.37
303.11 K, x2 = 0.8065	2.62
305.59 K, x2 = 0.7857	2.24
307.05 K, x2 = 0.8855	5.67
307.05 K, x2 = 0.9148	6.42
307.24 K, x2 = 0.6988	0.767
307.46 K, x1 = 0.0039	1.35
307.46 K, x2 = 0.8271	3.62
307.46 K, x2 = 0.8495	4.46
310.79 K, x2 = 0.7857	2.57
312.02 K, x2 = 0.9761	5.38
312.24 K, x2 = 0.7538	1.8
312.24 K, x2 = 0.8271	4.02
312.24 K, x2 = 0.8495	4.95
312.66 K, x1 = 0.0039	1.51
312.66 K, x2 = 0.8855	6.42
312.66 K, x2 = 0.9148	7.28
313.05 K, x2 = 0.6601	0.528
316.6 K, x1 = 0.0039	1.62
316.8 K, x2 = 0.8855	7.06
317.02 K, x2 = 0.8065	3.59
317.21 K, x2 = 0.9761	5.97
317.41 K, x2 = 0.9148	8.07
317.63 K, x2 = 0.6601	0.604
317.83 K, x2 = 0.7538	2.06
321.79 K, x2 = 0.8065	3.94
321.79 K, x2 = 0.8855	7.59
321.99 K, x1 = 0.0039	1.78
322.19 K, x2 = 0.8271	4.85
322.41 K, x2 = 0.9148	8.69
322.61 K, x2 = 0.8495	6.03
322.83 K, x2 = 0.6601	0.692
323.03 K, x2 = 0.6988	1.18
326.35 K, x2 = 0.7857	3.51
326.77 K, x1 = 0.0039	1.92
326.97 K, x2 = 0.8855	8.33
327.19 K, x2 = 0.7538	2.52
327.19 K, x2 = 0.9148	9.45
327.38 K, x2 = 0.9761	7.13
327.8 K, x2 = 0.8495	6.49
328.02 K, x2 = 0.8065	4.56
328.64 K, x2 = 0.6601	0.833
332.16 K, x1 = 0.0039	2.08
332.58 K, x2 = 0.6988	1.52
332.58 K, x2 = 0.9148	10
332.78 K, x2 = 0.9761	7.67
333.42 K, x2 = 0.6601	0.945
336.94 K, x2 = 0.8271	6.35
337.16 K, x1 = 0.0039	2.2
337.36 K, x2 = 0.8065	5.27
337.55 K, x2 = 0.8495	7.59
337.55 K, x2 = 0.9148	10.7
337.78 K, x2 = 0.9761	8.25
337.97 K, x2 = 0.7538	3.13
338.19 K, x2 = 0.6601	1.05
338.19 K, x2 = 0.6988	1.73
342.33 K, x2 = 0.8495	8.16
342.33 K, x2 = 0.9148	11.6
342.55 K, x2 = 0.6988	1.88
342.55 K, x2 = 0.8855	10.4
342.75 K, x2 = 0.9761	8.87
345.65 K, x2 = 0.7857	4.95
347.11 K, x2 = 0.8855	11
347.33 K, x2 = 0.6601	1.35
347.33 K, x2 = 0.8065	6.03
347.33 K, x2 = 0.8271	7.51
347.75 K, x2 = 0.9148	12.5
347.94 K, x2 = 0.7538	3.73
350.43 K, x2 = 0.7857	5.27
352.11 K, x2 = 0.8495	9.06
352.3 K, x1 = 0.0039	2.65
352.52 K, x2 = 0.9148	13
352.72 K, x2 = 0.8271	7.91
352.72 K, x2 = 0.9761	9.74
352.92 K, x2 = 0.6601	1.48
353.14 K, x2 = 0.6988	2.34
353.34 K, x2 = 0.7538	4.02
356.66 K, x2 = 0.8065	6.91
356.88 K, x2 = 0.6988	2.49
357.08 K, x2 = 0.9761	10.3
357.3 K, x2 = 0.8271	8.33
357.3 K, x2 = 0.8495	9.74
357.5 K, x1 = 0.0039	2.85
357.7 K, x2 = 0.6601	1.64
357.92 K, x2 = 0.7538	4.32
359.79 K, x2 = 0.7857	6.03
360.82 K, x2 = 0.8065	7.28
360.82 K, x2 = 0.9761	10.7
361.66 K, x2 = 0.8495	10.3
361.66 K, x2 = 0.8855	13.2
361.86 K, x1 = 0.0039	3.04
362.05 K, x2 = 0.6601	1.82
362.05 K, x2 = 0.8271	8.96
362.47 K, x2 = 0.6988	2.76
363.11 K, x2 = 0.9148	14.5
363.31 K, x2 = 0.7538	4.7

Reference: a compilation of properties of binary mixtures (doi:10.1021/acs.jpcc.8b05193)
